# In patent publication US20030064912A1, “Pharmaceutical compositions and methods of inhibiting angiogenesis using NAALADase inhibitors” (priority 1998, published 2003):
# Tests used:
# NAALADase = NAALADase (Homo sapiens, UniProt Q04609); experiment: In vitro inhibition of NAALADase activity; assay type: biochemical; conditions: for Ki: in vitro inhibition of NAALADase activity; for NAALADase inhibiting activity (in words): qualitative, compared with 2-(phosphonomethyl)pentanedioic acid
# Experimental: Various compounds of the present invention were tested for in vitro inhibition of NAALADase activity.
# mice = experiment: In vivo toxicity of NAALADase inhibitors in mice; conditions: for Survival Rate After 5 days (%): observed 5 consecutive days
# Text: The mice were subsequently observed two times per day for 5 consecutive days. The survival rate at each dose level is provided below in TABLE II.
# [1] = system: angiogenesis in the Matrigel™/bFGF gels; experiment: In vivo assay of a continuous dosage of NAALADase inhibitors on angiogenesis (miniosmotic pumps, Matrigel/bFGF); design: species or system C57B1 female mice; conditions: 13 days post injection
# Experimental: Minipumps filled with vehicle (50 mM Hepes) were also implanted at this time. Twenty-four hours later, mice were each injected subcutaneously with 0.5 mL Matrigel™ and the 150 ng/mL of the angiogenic factor, basic FGF (bFGF). Thirteen days post Matrigel™/bFGF injection, the gels were recovered, fixed in formalin and sections were stained with Trichrome-Masson stain.
# [2] = system: angiogenesis in Matrigel™ plugs; experiment: In vivo assay of daily dosages of NAALADase inhibitors on angiogenesis (Matrigel plug with bFGF); design: species or system C57B1 female mice; conditions: 7 days post injection
# Experimental: C57B1 female mice age 8 to 10 weeks (5/group) were injected subcutaneously with 0.5 mL of Matrigel™, 150 ng/mL of the angiogenic factor basic FGF (bFGF) and with 0, 0.47 μM or 4.7 μM […] (PMPA). The injected Matrigel™ rapidly formed a gel. […] Seven days post Matrigel™ injection, Matrigel™ plugs were excised and histology was performed.
# The concentrations of the daily dosages as well as the coinciding initial Matrigel™ plug compositions are provided below in TABLE IV.
# Chain of NAALADase (Q04609 whole entry): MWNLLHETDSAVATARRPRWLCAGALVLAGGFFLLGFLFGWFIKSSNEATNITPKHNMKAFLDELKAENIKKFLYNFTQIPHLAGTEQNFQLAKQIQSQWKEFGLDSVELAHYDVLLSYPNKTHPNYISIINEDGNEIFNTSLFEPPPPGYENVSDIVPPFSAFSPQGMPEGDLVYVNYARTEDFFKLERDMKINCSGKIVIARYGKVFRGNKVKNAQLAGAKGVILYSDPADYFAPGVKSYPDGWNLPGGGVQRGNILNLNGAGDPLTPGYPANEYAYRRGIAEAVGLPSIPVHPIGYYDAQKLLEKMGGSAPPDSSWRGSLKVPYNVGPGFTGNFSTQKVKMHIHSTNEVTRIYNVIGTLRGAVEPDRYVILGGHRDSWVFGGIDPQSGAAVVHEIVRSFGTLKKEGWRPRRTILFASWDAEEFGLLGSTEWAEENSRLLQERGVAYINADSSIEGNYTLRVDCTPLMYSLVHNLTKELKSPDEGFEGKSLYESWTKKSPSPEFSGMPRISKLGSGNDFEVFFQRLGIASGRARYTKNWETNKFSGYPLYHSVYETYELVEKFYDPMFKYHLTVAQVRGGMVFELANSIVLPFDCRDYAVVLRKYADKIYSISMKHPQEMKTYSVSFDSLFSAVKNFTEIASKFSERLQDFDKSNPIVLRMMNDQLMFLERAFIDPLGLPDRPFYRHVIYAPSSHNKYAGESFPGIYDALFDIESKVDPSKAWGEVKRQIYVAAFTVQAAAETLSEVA
Structure (SMILES),Ki (NAALADase) [nM],further results
O=C(O)CCC(CP(=O)(O)Cc1ccccc1)C(=O)O (stereo not drawn),34.1,
O=C(O)CCC(CP(=O)(O)c1ccccc1)C(=O)O (stereo not drawn),35.9,
CCCCP(=O)(O)CC(CCC(=O)O)C(=O)O (stereo not drawn),114,
O=C(O)CCC(CP(=O)(O)CCc1ccccc1)C(=O)O (stereo not drawn),148,
O=C(O)CCC(CP(=O)(O)CCCc1ccccc1)C(=O)O (stereo not drawn),232,
O=C(O)CCC(CP(=O)(O)Cc1c(F)c(F)c(F)c(F)c1F)C(=O)O (stereo not drawn),22.7,
O=C(O)CCC(CP(=O)(O)Cc1cccc(C(F)(F)F)c1)C(=O)O (stereo not drawn),22.5,
O=C(O)CCC(CP(=O)(O)CC(CCC(=O)OCc1ccccc1)C(=O)OCc1ccccc1)C(=O)O (stereo not drawn),12.7,
O=C(O)CCC(CP(=O)(O)CC(CCC(=O)O)C(=O)O)C(=O)O (stereo not drawn),0.57,
CC(CP(=O)(O)CC(CCC(=O)O)C(=O)O)C(=O)O (stereo not drawn),1.5,
O=C(O)CCC(CP(=O)(O)C(NCc1ccccc1)c1ccccc1)C(=O)O (stereo not drawn),313,
O=C(O)CCC(CP(=O)(O)CNCc1ccccc1)C(=O)O (stereo not drawn),51.8,
CC(=O)NCP(=O)(O)CC(CCC(=O)O)C(=O)O (stereo not drawn),118,
O=C(O)CCC(CP(=O)(O)CN1C(=O)c2ccccc2C1=O)C(=O)O (stereo not drawn),34.5,
COc1ccc(NCP(=O)(O)CC(CCC(=O)O)C(=O)O)cc1 (stereo not drawn),2.5,
Cc1ccc(NCP(=O)(O)CC(CCC(=O)O)C(=O)O)cc1 (stereo not drawn),5.2,
O=C(O)CCC(CP(=O)(O)CNC(=O)Nc1ccccc1)C(=O)O (stereo not drawn),75,
O=C(O)CCC(CP(=O)(O)O)C(=O)O (stereo not drawn) [2-(phosphonomethyl)pentanedioic acid],,"Survival Rate After 5 days (%) (mice; dose 1 mg/kg): 100%; Survival Rate After 5 days (%) (mice; dose 5 mg/kg): 100%; Survival Rate After 5 days (%) (mice; dose 10 mg/kg): 100%; Survival Rate After 5 days (%) (mice; dose 30 mg/kg): 100%; Survival Rate After 5 days (%) (mice; dose 100 mg/kg): 100%; Survival Rate After 5 days (%) (mice; dose 300 mg/kg): 100%; Survival Rate After 5 days (%) (mice; dose 500 mg/kg): 66.7%; Toxicity to mice (in words) (mice; doses 1 to 500 mg/kg): non-toxic to mice; Angiogenic response in Matrigel™/bFGF gels ([1]; 1 μg/day continuous by minipump): strong angiogenic response; Angiogenic response in Matrigel™/bFGF gels ([1]; 10 μg/day continuous by minipump): significantly decreased angiogenesis; Angiogenic response in Matrigel™/bFGF gels ([1]; 100 μg/day continuous by minipump): significantly decreased angiogenesis; Angiogenic response in Matrigel™ plugs (histology) ([2]; 3 mg/kg daily subcutaneous injection, 0.47 μM in Matrigel): decreased neovasculature or angiogenesis; Angiogenic response in Matrigel™ plugs (histology) ([2]; 3 mg/kg daily subcutaneous injection, 0.47 μM in Matrigel, listed as PMPA): decrease in blood vessels or angiogenesis; Angiogenic response in Matrigel™ plugs (histology) ([2]; 30 mg/kg daily subcutaneous injection, 4.7 μM in Matrigel): decreased neovasculature or angiogenesis; Angiogenic response in Matrigel™ plugs (histology) ([2]; 30 mg/kg daily subcutaneous injection, 4.7 μM in Matrigel, listed as PMPA): decrease in blood vessels or angiogenesis; NAALADase inhibiting activity (in words) (NAALADase): high NAALADase inhibiting activity"
O=C(O)CC(CP(=O)(O)O)C(=O)O (stereo not drawn) [2-(phosphonomethyl)succinic acid],,NAALADase inhibiting activity (in words) (NAALADase): much lower NAALADase inhibiting activity
O=C(O)CCC(CP(=O)(O)CCC(=O)O)C(=O)O (stereo not drawn) [2-[[(2-carboxyethyl)hydroxyphosphinyl]-methyl]pentanedioic acid],1.89 ± 0.19,NAALADase inhibiting activity (in words) (NAALADase): lower NAALADase inhibiting activity
